Source: patent US20220295713A1, “PLANT ACTIVATOR AND A METHOD OF MANUFACTURING THE SAME” (IBIDEN CO., LTD., priority 2016, published 2022)

Columns and labels:
bacterial wilt disease = assay: Bacterial wilt disease in tomatoes growing in farm field; type: in vivo, Tomato (cultivar "Reika"); conditions: plant activator 50 times diluted, applied once every week
Procedure: (§1) Tomato (cultivar “Reika”) seedlings were planted with space of 60 cm between plants in the farm field where an outburst of bacterial wilt disease was observed, and the solution of the plant activator for test, which was 50 times diluted with water, was applied either by spraying (20 mL/plant) or watering it to soil (200 mL plant) once every week. The incidences of the bacterial wilt disease and phytotoxic damage were evaluated once every week for 4 weeks.
(§2) The leaves and stems of tomatoes were treated similar to Example 6 except that the Validamycin or no agent was used instead of the plant activator for test.

[1] = test system: Tomato (cultivar "Reika"); type: in vivo; conditions: farm field, plant activator 50 times diluted, applied once every week
Procedure: as §1, §2

[2] = test system: bacterial soft rot causing bacteria (Erwinia carotovora subsp. Carotovora); assay: Bacterial soft rot in Arabidopsis thaliana after root treatment by watering; type: in vivo; conditions: comparative agents used instead of the plant activator, roots treated by watering, inoculated 24 hours after treatment
Procedure: The roots of Arabidopsis thaliana grown in the soil were treated by applying the 10 times, 100 times or 500 times diluted solution of the plant activator for test using the watering. 24 hours after the treatment, bacterial soft rot causing bacteria (Erwinia carotovora subsp. Carotovora) was inoculated on the leaves and stems above the ground. The plants were then grown at 23±2° C. in a high humidity environment for 3 days, and the disease symptoms at the pathogenic bacteria inoculated part had been evaluated up to one week after. The disease prevention effect was determined according to the following criteria.
⊚: the ratio of the area of leaves with no disease symptoms out of total area is 1.60 times or greater than the ratio observed in untreated leaves. ∘: the ratio of the area of leaves with no disease symptoms out of total area is 1.40 to 1.59 times than the ratio observed in untreated leaves. Δ: the ratio of the area of leaves with no disease symptoms out of total area is 1.20 to 1.39 times than the ratio observed in untreated leaves. X: the ratio of the area of leaves with no disease symptoms out of total area is 1.20 times less than the ratio observed in untreated leaves.
The roots of Arabidopsis thaliana were treated similar to Example 2 except that the water, peroxylipid, probenazole, isotianil, acibenzolar-S-methyl (ASM), 3′-chloro-4,4′-dimethyl-1,2,3-thiadiazole-5-carboxianilide (tiadinil), ketol fatty acid solution 1, or ketol fatty acid solution 2 was used instead of the plant activator for test.

[3] = test system: jasmonate mediated signaling pathway; assay: Real-time PCR gene expression in tomatoes, jasmonate mediated signaling pathway; type: in vivo, tomatoes (cultivar "Momotaro"); conditions: index, untreated tomatoes = 1
Procedure: (§3) Further, the cDNA was synthesized from total RNA isolated from each tomato 24 hours and 72 hours after the inoculation, and the expression level of individual genes specific to the salicylic acid mediated signaling pathway and the jasmonate mediated signaling pathway was analyzed by real-time PCR. In this example, the amount of the gene expression is represented by an index, which is a calculated ratio given that the amount of gene expression in untreated tomatoes is 1.

[4] = test system: tomatoes (cultivar "Momotaro"); assay: Phytotoxic damage in tomatoes grown in pot; type: in vivo; conditions: 10 mL undiluted solution by watering, 7 days
Procedure: (§4) The leaves and stems of tomatoes (cultivar “Momotaro”) grown in the pot for 3 weeks were treated by applying 10 mL of undiluted solution of the plant activator for test using the watering. The soil (about 100 g) in the pot was moistened thoroughly before the watering. The bacterial wilt disease bacteria were inoculated on the leaves and roots of tomatoes 1 hour and 24 hours after the watering. The plants were then grown at 30° C. in a high humidity environment for 7 days, and the incidences of the bacterial wilt disease and phytotoxic damage were evaluated.
(§5) The leaves and stems of tomatoes were treated similar to Example 5 except that the water and the fatty acid (linoleic acid) were used instead of the plant activator for test.

[5] = test system: bacterial wilt disease bacteria; assay: Bacterial wilt disease in tomatoes grown in pot; type: in vivo, tomatoes (cultivar "Momotaro"); conditions: 10 mL undiluted solution by watering, grown 7 days at 30° C. after inoculation
Procedure: as §4, §5

[6] = test system: salicylic acid mediated signaling pathway; assay: Real-time PCR gene expression in tomatoes, salicylic acid mediated signaling pathway; type: in vivo, tomatoes (cultivar "Momotaro"); conditions: index, untreated tomatoes = 1
Procedure: as §3

black point disease = assay: Naturally occurring black point disease in miniature roses in a planter; type: in vivo, miniature roses (cultivar Rouge); conditions: plant activator 100 times diluted or 0.02% mepanipyrim, sprayed once every week
Procedure: (§6) The solution of the plant activator for test, which was 100 times diluted with water, was applied to the leaves and stems of miniature roses (cultivar Rouge) planted in an outdoor planter right after the planting and once every week by spraying (about 50 mL/plant), and the naturally occurring damages due to disease (powdery mildew and black point disease) were evaluated on first week and fourth week.
(§7) The leaves and stems of miniature roses were treated similar to Example 7 except that 0.02% mepanipyrim or no agent was used instead of the plant activator for test.

powdery mildew = assay: Naturally occurring powdery mildew in miniature roses in a planter; type: in vivo, miniature roses (cultivar Rouge); conditions: plant activator 100 times diluted or 0.02% mepanipyrim, sprayed once every week
Procedure: as §6, §7

**Q.** What does the source list for OCC1=C[C@H](N[C@H]2C[C@H](CO)[C@@H](O[C@@H]3O[C@H](CO)[C@@H](O)[C@H](O)[C@H]3O)[C@H](O)[C@H]2O)[C@H](O)[C@@H](O)[C@@H]1O [Validamycin]?
**A.** incidences of disease Week 1 (bacterial wilt disease; Week 1): 0%; incidences of disease Week 2 (bacterial wilt disease; Week 2): 0%; incidences of disease Week 3 (bacterial wilt disease; Week 3): 0%; incidences of disease Week 4 (bacterial wilt disease; Week 4): 67%; incidences of phytotoxic damage Week 1 ([1]; Week 1): 100%; incidences of phytotoxic damage Week 2 ([1]; Week 2): 100%; incidences of phytotoxic damage Week 3 ([1]; Week 3): 100%; incidences of phytotoxic damage Week 4 ([1]; Week 4): 100%

**Q.** For Cc1ccc(NC(=O)c2snnc2C)cc1Cl [tiadinil, 3′-chloro-4,4′-dimethyl-1,2,3-thiadiazole-5-carboxianilide], which disease prevention [2] is on record?
**A.** The disease prevention was “X (the ratio of the area of leaves with no disease symptoms out of total area is 1.20 times less than the ratio observed in untreated leaves.)”.

**Q.** Which “amount of gene expression jasmonate mediated signaling pathway 24 hours” value ([3]; 24 hours after inoculation) does the source give for CCCCC/C=C\C/C=C\CCCCCCCC(=O)O [fatty acid, linoleic acid] here?
**A.** The value was 0.5.

**Q.** What about the “amount of gene expression jasmonate mediated signaling pathway 72 hours” value ([3]; 72 hours after inoculation) of the same compound?
**A.** The value was 1.

**Q.** And the “incidences of phytotoxic damage” value [4]?
**A.** The value was 0%.

**Q.** And the incidences of disease [5]?
**A.** The incidences of disease was 100%.

**Q.** What about the “amount of gene expression salicylic acid mediated signaling pathway 24 hours” value ([6]; 24 hours after inoculation) of the same compound?
**A.** Its value is 0.

**Q.** What about the “amount of gene expression salicylic acid mediated signaling pathway 72 hours” value ([6]; 72 hours after inoculation) of the same compound?
**A.** Its value is 0.

**Q.** Which results are given for CC#Cc1cc(C)nc(Nc2ccccc2)n1 [mepanipyrim]?
**A.** incidences of disease black point disease Week 1 (black point disease; Week 1): 0%; incidences of disease black point disease Week 4 (black point disease; Week 4): 15%; incidences of disease powdery mildew Week 1 (powdery mildew; Week 1): 20.0%; incidences of disease powdery mildew Week 4 (powdery mildew; Week 4): 30.0%

**Q.** With N#Cc1ccccc1NC(=O)c1snc(Cl)c1Cl [isotianil] as the compound, how does the disease prevention [2] read?
**A.** Its disease prevention is “Δ (the ratio of the area of leaves with no disease symptoms out of total area is 1.20 to 1.39 times than the ratio observed in untreated leaves.)”.

**Q.** How did the disease prevention [2] turn out when C=CCOC1=NS(=O)(=O)c2ccccc21 [probenazole] was run?
**A.** Its disease prevention is “Δ (the ratio of the area of leaves with no disease symptoms out of total area is 1.20 to 1.39 times than the ratio observed in untreated leaves.)”.

**Q.** With CSC(=O)c1cccc2nnsc12 [ASM, acibenzolar-S-methyl] as the compound, how does the disease prevention [2] read?
**A.** Its disease prevention is “⊚ (the ratio of the area of leaves with no disease symptoms out of total area is 1.60 times or greater than the ratio observed in untreated leaves.)”.
